Test results taken from article PMC5545217 (Nature Communications, 2017).
Entries after “also recorded” stand apart in the source; their conditions may differ.

Molecular target: D216V ATP-PRT (Mycobacterium tuberculosis, UniProt P9WMN1, D216V)
Assay type: biochemical

| SMILES | Inhibition of D216V ATP-PRT | Activation of D216V ATP-PRT |
| --- | --- | --- |
| N[C@@H](Cc1c[nH]cn1)C(=O)O [L-His, L-histidine, reference compound] | no longer inhibited by L-His; also recorded: did not change D216 V activity |  |
| N[C@@H](Cc1cccs1)C(=O)O [TIH, 3-(2-thienyl)-L-alanine] |  | still activated by TIH |
